Assay results from US20110028447A1, “INDAZOLE DERIVATIVES” (Pfizer Inc., priority 2008, published 2011).
Like-named read-outs stand apart in the source and are kept apart here.

Assays:
human CB1 receptor [1] = biological target: T1, human CB1 receptor (Homo sapiens, UniProt P21554); assay: [35S] GTPγS binding on membranes of CHO cells expressing the human CB1 receptor (agonism); format: biochemical; parameters: expressed in transfected cells; membrane preparation
Description: Membrane preparation: CHO cells expressing the human CB1 receptor were grown to 80% confluence in Ham's F-12 Nutrient Medium (Invitrogen) containing 10% fetal bovine serum (Invitrogen), 1% pen/strep (Invitogen), 1% Nonessential amino acids (Invitrogen) and 500 μg/ml G418 (Invitrogen). Cells were released from flasks using Cell Dissociation Buffer (Invitrogen). Cells were pelleted by centrifugation at 500×G for 5 minutes. Membranes were prepared by resuspending cells in ice cold Assay Buffer (25 mM Tris pH 7.4, 5 mM EDTA, 5 mM EGTA, Complete Protease Inhibitor (Roche)). Cells were lysed with 12 strokes of a dounce homogenizer. Unlysed cells were pelleted by centrifugation at 500×G for 5 minutes. Membranes were pelleted by centrifugation at 25,000×G for 30 minutes. Membranes were resuspended in TEE, dounced 12 strokes, and pelleted a second time at 25,000×G for 30 minutes. Membrane pellet was resuspended in 50 mM Tris pH 7.4, 100 mM NaCl, 3 mM MgCl2, 0.2 mM EGTA, Complete Protease Inhibitor (Roche). Protein concentration was determined using the Micro-BCA Protein Assay Kit (Pierce) using BSA as a standard. Membranes were frozen and stored at −80 degrees Celsius until use.
GTPγS Binding: 40 μl of test compound was incubated with 20 μl of [^35S] GTPγS (Perkin Elmer) (1250 Ci/millimole) and 140 μl of membrane homogenate (5 μg/well) in polypropylene 96-well plates (Corning). Final reaction conditions were 50 mM Tris pH 7.4, 100 mM NaCl, 3 mM MgCl2, 0.2 mM EGTA, 0.04% BSA. After incubation at 37 degrees Celsius for 45 minutes reactions were harvested by vacuum filtration through Unifilter GF/B-96 filters (Perkin Elmer) using a FilterMate Plate Harvester (Perkin Elmer). Filters were rinsed 4 times with ice cold 50 mM Tris pH 7.4, 3 mM MgCl2, 0.2 mM EGTA and dried at 50 degrees Celsius for at least 30 minutes. 40 μl of Microscint-20 (Perkin Elmer) was added per well, and plates were counted using a Top-Count Microplate Scintillation Counter (Perkin Elmer). Binding data were analyzed and EC50 values were calculated using Graph Pad Prism 4.0 Software.

human CB1 receptor [2] = biological target: T1, human CB1 receptor; assay: Human CB1 receptor binding, [3H] CP-55,940 displacement on HEK cell membranes; parameters: expressed in transfected cells; host or cells: HEK cells, doxycycline-induced; membrane preparation
Method in brief: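 Membranes from doxycycline-induced HEK cells expressing human CB1 incubated 60 min at room temperature with [3H] CP-55,940 (final […]) in 50 mM Tris pH 7.4, 100 mM NaCl, 3 mM MgCl2, 0.2 mM EGTA, 0.04% BSA. Nonspecific binding defined with 50 μM WIN-55,212-2; filtration and scintillation counting gave EC50 and Ki.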

[3] = GTPγS EC50, human CB1, CHO cell membranes
[4] = human CB1, CHO cell membranes, read-out: GTPγS EC50

T1 sequence (P21554 whole entry): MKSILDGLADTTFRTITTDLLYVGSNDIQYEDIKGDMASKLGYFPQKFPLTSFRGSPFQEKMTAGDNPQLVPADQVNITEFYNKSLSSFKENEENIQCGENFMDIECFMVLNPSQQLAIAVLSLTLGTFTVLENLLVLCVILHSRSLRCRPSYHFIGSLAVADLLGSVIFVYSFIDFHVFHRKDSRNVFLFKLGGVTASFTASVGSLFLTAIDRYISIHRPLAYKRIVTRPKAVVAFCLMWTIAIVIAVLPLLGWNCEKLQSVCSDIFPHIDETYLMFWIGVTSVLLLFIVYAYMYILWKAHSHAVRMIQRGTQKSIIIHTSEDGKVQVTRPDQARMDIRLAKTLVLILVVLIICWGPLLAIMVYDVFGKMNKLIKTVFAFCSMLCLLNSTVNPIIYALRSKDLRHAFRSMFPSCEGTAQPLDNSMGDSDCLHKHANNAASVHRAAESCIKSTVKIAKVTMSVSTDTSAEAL

Compound	EC50 (human CB1 receptor [1]; [3])	Ki (human CB1 receptor [2]; CB1 Ki)	EC50 (human CB1 receptor [1]; [4])	Ki (human CB1 receptor [2]; read-out: CB1 Ki)
CC(C)(C)C(NC(=O)c1nn(Cc2ccc(C#N)cc2F)c2ccccc12)C(=O)NCC(O)CO (stereo not shown) [Example 89]	539 nM	63.4 nM		
Cc1cc2c(C(=O)N[C@H](C(=O)NCCS(N)(=O)=O)C(C)(C)C)nn(Cc3ccc(F)cc3)c2cc1F [Example 512]	31.4 nM	8.4 nM		
CCOC(=O)c1nc(CNC(=O)C(NC(=O)c2nn(Cc3ccc(C#N)cc3)c3ccccc23)C(C)(C)C)no1 (stereo not shown) [Example 136]			115 nM	10.7 nM
Cc1nc(CNC(=O)C(NC(=O)c2nn(Cc3ccc(F)cc3)c3ccccc23)C(C)(C)C)no1 (stereo not shown) [Example 131]	13.2 nM	0.6 nM		
CC(C)(C)[C@H](NC(=O)c1nn(Cc2ccc(F)cc2)c2c(Cl)cc(Cl)cc12)C(N)=O [Example 226]	0.73 nM	0.18 nM		
CC(C)(C)C(NC(=O)c1nn(Cc2ccc(F)cc2)c2ccccc12)C(=O)N1CCC(O)CC1 (stereo not shown) [Example 133]	6.35 nM	0.55 nM		
CC(C)(C)[C@H](NC(=O)c1nn(Cc2ccc(F)cc2)c2ccccc12)C(=O)NCc1cnn2cccnc12 [Example 417]			25.7 nM	7.84 nM
CC(C)(C)[C@H](NC(=O)c1nn(Cc2ccc(F)cc2)c2ccccc12)C(=O)N1CCC(CCO)CC1 [Example 224]			19.3 nM	6.77 nM
COC(=O)[C@@H](NC(=O)c1nn(Cc2ccccc2)c2ccccc12)C(C)(C)C [Example 38]	2.42 nM	0.14 nM		
Cc1cc(NC(=O)[C@@H](NC(=O)c2nn(Cc3ccc(F)cc3)c3ccccc23)C(C)(C)C)sn1 [Example 514]	33.3 nM	3.03 nM		
CN1CC(CNC(=O)[C@@H](NC(=O)c2nn(Cc3ccc(F)cc3)c3ccccc23)C(C)(C)C)CC1=O (stereo partly shown) [Example 411]			21.3 nM	3.73 nM
CC(C)(C)[C@H](NC(=O)c1nn(Cc2ccccc2)c2cc(-c3cccnc3)ccc12)C(N)=O [Example 45]			21.4 nM	8.79 nM
CC(C)(C)[C@H](NC(=O)c1nn(Cc2ccc(F)cc2)c2ccccc12)C(=O)NC1CCCOC1 (stereo partly shown) [Example 339]	21.6 nM	5.36 nM		
CC(C)(C)[C@H](NC(=O)c1nn(Cc2ccccc2)c2ccccc12)C(=O)NC[C@H](O)CO [Example 73]	217 nM	22.9 nM		
CC(C)(C)[C@H](NC(=O)c1nn(Cc2ccc(F)cc2)c2ccccc12)C(=O)NC[C@H](O)CN1CCOCC1 [Example 504]			132 nM	21.3 nM
CC(C)(C)[C@H](NC(=O)c1nn(Cc2ccc(C#N)cc2)c2ccccc12)C(=O)NCCNS(=O)(=O)C1CC1 [Example 97]			16.7 nM	1.04 nM
CC(C)(C)[C@H](NC(=O)c1nn(Cc2ccc(F)cc2)c2ccccc12)C(=O)N1CCCC(O)C1 (stereo partly shown) [Example 251]	2.33 nM	0.51 nM		
Cn1nc(CNC(=O)[C@@H](NC(=O)c2nn(Cc3ccc(F)cc3)c3ccccc23)C(C)(C)C)cc1C1CCC1 [Example 416]			47.1 nM	9.26 nM
CC(C)(C)[C@H](NC(=O)c1nn(Cc2ccc(C#N)cc2)c2ccccc12)C(=O)NC1CC1 [Example 65]	90 nM	3.85 nM		

Compound	EC50 (human CB1 receptor [1]; [3])	Ki (human CB1 receptor [2]; CB1 Ki)	EC50 (human CB1 receptor [1]; [4])	Ki (human CB1 receptor [2]; read-out: CB1 Ki)
CC(C)(C)C(NC(=O)c1nn(Cc2ccc(F)cc2)c2ccc(F)cc12)C(=O)NCC(N)=O (stereo not shown) [Example 173]	5.12 nM	2.37 nM		
CC(C)(C)C(NC(=O)c1nn(Cc2ccc(F)cc2)c2c(F)cccc12)C(=O)NCc1nnc(C(N)=O)o1 (stereo not shown) [Example 180]			3.81 nM	0.37 nM
CC(C)(C)[C@H](NC(=O)c1nn(Cc2ccc(F)cc2)c2ccccc12)C(=O)N1CCN(C(N)=O)CC1 [Example 220]			3.78 nM	1.26 nM
CCOC(=O)c1nc(CNC(=O)C(NC(=O)c2nn(Cc3ccc(F)cc3)c3ccccc23)C(C)(C)C)no1 (stereo not shown) [Example 135]			14.3 nM	3.47 nM
CC(C)(C)[C@H](NC(=O)c1nn(Cc2ccc(C#N)cc2)c2c(F)cccc12)C(=O)NC1CC1 [Example 108]	27 nM	3.78 nM		
CC(C)(C)[C@H](NC(=O)c1nn(Cc2ccc(F)cc2)c2ccccc12)C(=O)NCc1n[nH]c(-c2ccccc2)n1 [Example 414]			38.6 nM	7.61 nM
CC(C)(C)C(NC(=O)c1nn(Cc2ccc(C#N)cc2)c2ccc(F)cc12)C(=O)NCCO (stereo not shown) [Example 166]	132 nM	5.14 nM		
CC(C)(C)[C@H](NC(=O)c1nn(Cc2ccc(F)cc2)c2c(F)c(F)ccc12)C(=O)NC[C@H](O)CO [Example 323]	22.5 nM	2.99 nM		
CC(C)(C)C(NC(=O)c1nn(Cc2ccccc2)c2cc(Br)ccc12)C(N)=O (stereo not shown) [Example 33]	0.92 nM	0.24 nM		
CC(C)(C)[C@H](NC(=O)c1nn(Cc2ccc(F)cc2)c2ccccc12)C(=O)N1CCN(S(C)(=O)=O)CC1 [Example 244]			16.2 nM	2.42 nM
COc1cccc(CNC(=O)c2nn(Cc3ccccc3)c3ccccc23)c1 [Example 43]	101 nM	27.1 nM		
CC(C)(C)[C@H](NC(=O)c1nn(Cc2ccc(C#N)cc2)c2c(F)cccc12)C(N)=O [Example 111]	9.73 nM	0.72 nM		
CCOC(=O)c1nnc(CNC(=O)[C@@H](NC(=O)c2nn(Cc3ccc(F)cc3)c3ccccc23)C(C)(C)C)o1 [Example 128]			3.58 nM	0.97 nM
CC(C)(C)[C@H](NC(=O)c1nn(Cc2ccc(F)cc2)c2c(F)cccc12)C(=O)NCCS(N)(=O)=O [Example 348]	19.7 nM	7.83 nM		
CCNC(=O)OC1CCN(C(=O)[C@@H](NC(=O)c2nn(Cc3ccc(F)cc3)c3ccccc23)C(C)(C)C)CC1 [Example 303]			11 nM	2.27 nM
CC(C)(C)[C@H](NC(=O)c1nn(Cc2ccc(F)cc2)c2ccccc12)C(=O)N[C@H]1CC[C@@H](O)C1 [Example 288]	9.53 nM	1.18 nM		
CC(C)(C)[C@H](NC(=O)c1nn(Cc2ccc(F)cc2)c2ccc(Cl)cc12)C(=O)NC1CCC1 [Example 438]	20 nM	10.9 nM		
CC(C)(C)[C@H](NC(=O)c1nn(Cc2ccc(F)cc2)c2ccccc12)C(=O)N[C@@H]1CC[C@@H](O)C1 [Example 289]	35.8 nM	5.13 nM		
CC(C)(C)C(NC(=O)c1nn(Cc2ccc(F)cc2)c2ccc(F)cc12)C(=O)NCCCO (stereo not shown) [Example 174]	1.81 nM	1.1 nM		
